Experimental data published in US8329918B2, “Selective alpha 2B/2C agonists” (priority 2009, dated 2012).
Read-outs that look alike come from different tables or passages of the source.

Assays:
[1] = system: patient with moderate intraocular pressure in the right eye; assay: Treating elevated intraocular pressure in a patient; format: in vivo; conditions: ophthalmic composition to the right eye twice daily; two months later
Excerpt: An ophthalmic composition including N-(2-methoxybenzyl)-4,5-dihydrooxazol-2-amine is delivered to the right eye of the patient twice daily.
II. […] An ophthalmic composition including N-(2-methoxybenzyl)-4,5-dyhydrothizaol-2-amine is delivered to the right eye of the patient twice daily.
III. […] An ophthalmic composition including N-(3-chloro-2-fluorobenzyl)-4,5-dihydrooxazol-2-amine is delivered to the right eye of the patient twice daily.

[2] = system: patient with moderate post-herpetic neuralgia pain; assay: Treating post-herpetic neuralgia pain in a patient; format: in vivo; conditions: tablet twice daily as needed
Excerpt: A tablet including N-(2-methoxybenzyl)-4,5-dihydrooxazol-2-amine is delivered taken by the patient twice daily as needed for the pain.
II. […] A tablet including N-(2-methoxybenzyl)-4,5-dyhydrothizaol-2-amine is delivered taken by the patient twice daily as needed for the pain.
III. […] A tablet including N-(3-chloro-2-fluorobenzyl)-4,5-dihydrooxazol-2-amine is delivered taken by the patient twice daily as needed for the pain.

[3] = system: diabetic patient with moderate neuropathy in the right leg; assay: Treating diabetic peripheral neuropathy in a patient; format: in vivo; conditions: topical composition on the right leg twice daily; two months later
Experimental: A topical composition including N-(2-methoxybenzyl)-4,5-dihydrooxazol-2-amine is administered on the right leg of the patient twice daily.
III. […] A topical composition including N-(2-methoxybenzyl)-4,5-dyhydrothizaol-2-amine is administered on the right leg of the patient twice daily.
III. […] A topical composition including N-(3-chloro-2-fluorobenzyl)-4,5-dihydrooxazol-2-amine is administered on the right leg of the patient twice daily.

alpha2A receptor = target: T1, alpha2A receptor (Homo sapiens, UniProt P08913); assay: RSAT assay, alpha 2A; format: cell-based; conditions: for (rel. efficacy) Alpha 2A: ratio of maximal effect to standard full agonist brimonidine (UK14304)
T1 sequence (P08913 1-465): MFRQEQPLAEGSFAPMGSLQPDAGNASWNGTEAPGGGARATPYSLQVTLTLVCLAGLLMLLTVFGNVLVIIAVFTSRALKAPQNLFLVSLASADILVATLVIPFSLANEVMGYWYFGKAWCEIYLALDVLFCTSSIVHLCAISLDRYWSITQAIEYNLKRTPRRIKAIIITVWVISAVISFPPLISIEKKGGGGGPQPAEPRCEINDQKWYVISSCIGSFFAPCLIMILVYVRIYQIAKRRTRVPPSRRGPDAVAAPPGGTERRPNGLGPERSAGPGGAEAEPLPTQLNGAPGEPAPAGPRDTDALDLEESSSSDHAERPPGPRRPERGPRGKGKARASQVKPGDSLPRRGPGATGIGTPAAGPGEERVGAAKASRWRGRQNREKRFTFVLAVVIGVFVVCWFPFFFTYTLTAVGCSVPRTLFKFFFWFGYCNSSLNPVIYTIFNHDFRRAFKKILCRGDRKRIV
Experimental: (§1) Selected presently described compounds were synthesized and tested for alpha adrenergic activity using the Receptor Selection and Amplification Technology (RSAT) assay. Cells expressing each of the alpha-2-adrenergic receptors alone were incubated with various compounds and a receptor-mediated growth response was measured. The compound's activity is expressed as its relative efficacy compared to a standard full agonist.
(§2) The RSAT assay measures a receptor-mediated loss of contact inhibition that results in selective proliferation of receptor-containing cells in a mixed population of confluent cells. The increase in cell number is assessed with an appropriate transfected marker gene such as β-galactosidase, the activity of which can be easily measured in a 96-well format. Receptors that activate the G protein, Gq, elicit this response. Alpha2 receptors, which normally couple to Gi, activate the RSAT response when coexpressed with a hybrid Gq protein that has a Gi receptor recognition domain, called Gq/i5.
(§3) NIH-3T3 cells are plated at a density of 2×10^6 cells in 15 cm dishes and maintained in Dulbecco's modified Eagle's medium supplemented with 10% calf serum. One day later, cells are cotransfected by calcium phosphate precipitation with mammalian expression plasmids encoding p-SV-β-galactosidase (5-10 μg), receptor (1-2 μg) and G protein (1-2 μg). 40 μg salmon sperm DNA may also be included in the transfection mixture. Fresh media is added on the following day and 1-2 days later, cells are harvested and frozen in 50 assay aliquots. Cells are thawed and […] added to […] aliquots of various concentrations of drugs in triplicate in 96-well dishes. Incubations continue 72-96 hr at 37° C. After washing with phosphatebuffered saline, β-galactosidase enzyme activity is determined by adding 200 μl of the chromogenic substrate (consisting of 3.5 mM o-nitrophenyl-β-D-galactopyranoside and 0.5% nonidet P-40 in phosphate buffered saline), incubating overnight at 30° C. and measuring optical density at 420 nm. The absorbance is a measure of enzyme activity, which depends on cell number and reflects a receptor-mediated cell proliferation. The EC50 and maximal effect of each drug at each alpha2 receptor is determined. The efficacy or intrinsic activity is calculated as a ratio of the maximal effect of the drug to the maximal effect of a standard full agonist for each receptor subtype. Brimonidine, also called UK14304, is used as the standard agonist for the alpha2A, alpha2B, and alpha2C receptors.
(§4) The compounds activity is expressed as its relative efficacy compared to a standard full agonist.

alpha2B receptor = target: T2, alpha2B receptor (Homo sapiens, UniProt P18089); assay: RSAT assay, alpha 2B; format: cell-based; conditions: for (rel. efficacy) Alpha 2B: ratio of maximal effect to standard full agonist brimonidine (UK14304)
T2 construct: expressed in transfected cells; host or cells: NIH-3T3
T2 sequence (P18089 1-450): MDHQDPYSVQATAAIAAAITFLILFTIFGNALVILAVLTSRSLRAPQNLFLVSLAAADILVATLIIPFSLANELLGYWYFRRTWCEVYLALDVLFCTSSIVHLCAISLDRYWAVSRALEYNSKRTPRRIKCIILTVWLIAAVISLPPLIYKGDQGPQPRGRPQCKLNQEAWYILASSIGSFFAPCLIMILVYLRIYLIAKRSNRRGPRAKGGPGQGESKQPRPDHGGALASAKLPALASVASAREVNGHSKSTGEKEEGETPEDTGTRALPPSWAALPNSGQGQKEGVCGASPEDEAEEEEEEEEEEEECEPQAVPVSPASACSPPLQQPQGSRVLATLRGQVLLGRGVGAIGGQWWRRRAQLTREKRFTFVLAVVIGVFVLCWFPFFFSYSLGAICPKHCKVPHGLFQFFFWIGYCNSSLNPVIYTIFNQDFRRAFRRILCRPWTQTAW
Experimental: as §1, §2, §3, §4

alpha2C receptor = target: T3, alpha2C receptor (Homo sapiens, UniProt P18825); assay: RSAT assay, alpha 2C; format: cell-based; conditions: for (rel. efficacy) Alpha 2C: ratio of maximal effect to standard full agonist brimonidine (UK14304)
T3 construct: expressed in transfected cells; host or cells: NIH-3T3
T3 sequence (P18825 1-462): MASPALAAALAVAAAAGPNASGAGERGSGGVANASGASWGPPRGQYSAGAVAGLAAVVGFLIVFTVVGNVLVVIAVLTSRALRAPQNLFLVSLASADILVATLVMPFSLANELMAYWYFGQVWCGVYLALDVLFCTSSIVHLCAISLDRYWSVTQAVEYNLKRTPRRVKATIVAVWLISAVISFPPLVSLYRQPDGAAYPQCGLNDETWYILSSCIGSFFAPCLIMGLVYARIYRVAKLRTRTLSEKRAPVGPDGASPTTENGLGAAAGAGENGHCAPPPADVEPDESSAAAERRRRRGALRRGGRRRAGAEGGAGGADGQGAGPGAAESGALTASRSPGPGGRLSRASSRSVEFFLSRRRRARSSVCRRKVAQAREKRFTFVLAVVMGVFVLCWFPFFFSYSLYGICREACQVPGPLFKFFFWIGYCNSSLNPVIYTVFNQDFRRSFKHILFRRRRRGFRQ
Experimental: as §1, §2, §3, §4

[4] = RSAT, NIH-3T3 cells, NA = not active, read-out: EC50 (nM) Alpha 2A
[5] = RSAT, NIH-3T3 cells, NA = not active, read-out: EC50 (nM) Alpha 2C

SMILES | intraocular pressure of the patient [1] | patient-reported pain [2] | neuropathy of the patient [3] | EC50 (alpha2A receptor) [nM] | (rel. efficacy) Alpha 2A (alpha2A receptor; RSAT) | EC50 (alpha2B receptor) [nM] | (rel. efficacy) Alpha 2B (alpha2B receptor; RSAT) | EC50 (alpha2C receptor) [nM] | (rel. efficacy) Alpha 2C (alpha2C receptor; RSAT) | EC50 (alpha2A receptor; [4]) [nM] | EC50 (alpha2B receptor; RSAT, NIH-3T3 cells, NA = not active, read-out: EC50 (nM) Alpha 2B) [nM] | EC50 (alpha2C receptor; [5]) [nM]
Fc1c(Cl)cccc1CNC1=NCCO1 [N-(3-chloro-2-fluorobenzyl)-4,5-dihydrooxazol-2-amine] | normal intraocular pressure | reduction of pain | reduction neuropathy |  |  |  |  |  |  |  |  | 
COc1ccccc1CNC1=NCCO1 [N-(2-methoxybenzyl)-4,5-dihydrooxazol-2-amine] | normal intraocular pressure | reduction of pain | reduction neuropathy |  |  |  |  |  |  |  |  | 
COc1ccccc1CNC1=NCCS1 [N-(2-methoxybenzyl)-4,5-dihydrothiazol-2-amine] | normal intraocular pressure | reduction of pain | reduction neuropathy |  |  |  |  |  |  |  |  | 
Fc1c(Br)cccc1CNC1=NCCS1 |  |  |  | 1380 | 0.44 | 34 | 0.98 | 182 | 0.64 |  |  | 
Clc1ccc(Br)c(CNC2=NCCS2)c1 |  |  |  |  | 0.45 |  | 1.04 |  | 0.69 | 2270 | 250 | 855
COc1c(C)cccc1CNC1=NCCS1 |  |  |  | 481 | 0.57 | 27 | 0.98 | 187 | 0.97 |  |  | 
COc1c(Br)cccc1CNC1=NCCS1 |  |  |  |  | 0.55 | 31 | 1.1 |  | 0.81 | 621 |  | 109
